In US6737383B1, “Herbicidal oxadiazolidines” (priority 1999, dated 2004):

Tests used:
[1] = tested on: purple nutsedge; test: Test B pre/postemergence purple nutsedge; format: in vivo, Cyperus rotundus
Method in brief: (§1)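 Response is a visual 0-to-10 score relative to untreated plants, where 0 means no effect and 10 means complete control, taken twelve to sixteen days after application. Treatments went onto soil at planting and onto foliage of 1- to 4-leaf plants, using a surfactant-containing non-phytotoxic solvent.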

[2] = tested on: wheat; test: Test B pre/postemergence wheat; format: in vivo, Triticum aestivum
Method in brief: as §1

[3] = tested on: corn; test: Test B pre/postemergence corn; format: in vivo, Zea mays
Method in brief: as §1

[4] = tested on: rape; test: Test B pre/postemergence rape; format: in vivo, Brassica napus
Method in brief: as §1

[5] = tested on: crabgrass; test: Test B pre/postemergence crabgrass; format: in vivo, Digitaria sanguinalis
Method in brief: as §1

[6] = tested on: blackgrass; test: Test B pre/postemergence blackgrass; format: in vivo, Alopecurus myosuroides
Method in brief: as §1

[7] = tested on: giant foxtail; test: Test B pre/postemergence giant foxtail; format: in vivo, Setaria faberii
Method in brief: as §1

[8] = tested on: cocklebur; test: Test B pre/postemergence cocklebur; format: in vivo, Xanthium strumarium
Method in brief: as §1

[9] = tested on: sugar beet; test: Test B pre/postemergence sugar beet; format: in vivo, Beta vulgaris
Method in brief: as §1

[10] = tested on: surinam grass; test: Test B pre/postemergence surinam grass; format: in vivo, Brachiaria decumbens
Method in brief: as §1

[11] = tested on: pigweed; test: Test B pre/postemergence pigweed; format: in vivo, Amaranthus retroflexus
Method in brief: as §1

[12] = tested on: soybean; test: Test B pre/postemergence soybean; format: in vivo, Glycine max
Method in brief: as §1

[13] = Postemergence, Rate 125 g/ha, scale of 0 to 10 where 0 is no effect and 10 is complete control
[14] = Preemergence, Rate 62 g/ha, scale of 0 to 10 where 0 is no effect and 10 is complete control
[15] = Preemergence, Rate 125 g/ha, 0 is no effect, 10 is complete control
[16] = Preemergence, Rate 250 g/ha, scale 0 to 10, 0 is no effect, 10 is complete control
[17] = Preemergence, Rate 500 g/ha, scale 0 to 10 (0 no effect, 10 complete control)
[18] = Rate 62 g/ha, Postemergence, scale of 0 to 10 where 0 is no effect and 10 is complete control
[19] = Rate 250 g/ha, Postemergence, scale 0 to 10, 0 is no effect, 10 is complete control
[20] = Rate 500 g/ha, Postemergence, scale 0 to 10

CC1CCCCC1n1c(=O)on(C(=O)N(c2ccccc2)C(C)C)c1=O (stereo not shown) [Compound 162]
Nutsedge plant response rating [1, 13]: 0
Nutsedge plant response rating [1, 14]: 0
Nutsedge plant response rating (0 to 10 scale) [1, 15]: 0
Nutsedge plant response rating [1, 16]: 0
Nutsedge plant response rating [1, 17]: 0
Nutsedge plant response rating [1, 18]: 0
Plant response rating, Nutsedge [1, 19]: 0
Nutsedge plant response rating [1, 20]: 2
Wheat plant response rating [2, 14]: 0
Wheat plant response rating (0 to 10 scale) [2, 15]: 0
Wheat plant response rating [2, 16]: 0
Wheat plant response rating [2, 17]: 0
Plant response rating, Wheat [2, 19]: 0
Wheat plant response rating [2, 20]: 0
Corn plant response rating [3, 13]: 0
Corn plant response rating [3, 14]: 0
Corn plant response rating (0 to 10 scale) [3, 15]: 0
Corn plant response rating [3, 16]: 0
Corn plant response rating [3, 17]: 0
Corn plant response rating [3, 18]: 0
Plant response rating, Corn [3, 19]: 0
Corn plant response rating [3, 20]: 0
Rape plant response rating [4, 13]: 0
Rape plant response rating [4, 14]: 0
Rape plant response rating (0 to 10 scale) [4, 15]: 2
Rape plant response rating [4, 16]: 4
Rape plant response rating [4, 17]: 9
Rape plant response rating [4, 18]: 0
Plant response rating, Rape [4, 19]: 0
Rape plant response rating [4, 20]: 0
Crabgrass plant response rating [5, 13]: 2
Crabgrass plant response rating [5, 14]: 6
Crabgrass plant response rating (0 to 10 scale) [5, 15]: 8
Crabgrass plant response rating [5, 16]: 9
Crabgrass plant response rating [5, 17]: 10
Crabgrass plant response rating [5, 18]: 0
Plant response rating, Crabgrass [5, 19]: 6
Crabgrass plant response rating [5, 20]: 8
Blackgrass plant response rating [6, 13]: 0
Blackgrass plant response rating [6, 14]: 0
Blackgrass plant response rating (0 to 10 scale) [6, 15]: 2
Blackgrass plant response rating [6, 16]: 2
Blackgrass plant response rating [6, 17]: 3
Blackgrass plant response rating [6, 18]: 0
Plant response rating, Blackgrass [6, 19]: 0
Blackgrass plant response rating [6, 20]: 6
Giant foxtail plant response rating [7, 13]: 2
Giant foxtail plant response rating [7, 14]: 7
Giant foxtail plant response rating (0 to 10 scale) [7, 15]: 7
Giant foxtail plant response rating [7, 16]: 9
Giant foxtail plant response rating [7, 17]: 9
Giant foxtail plant response rating [7, 18]: 0
Plant response rating, Giant foxtail [7, 19]: 2
Giant foxtail plant response rating [7, 20]: 3
Cocklebur plant response rating [8, 13]: 0
Cocklebur plant response rating [8, 14]: 0
Cocklebur plant response rating (0 to 10 scale) [8, 15]: 0
Cocklebur plant response rating [8, 16]: 0
Cocklebur plant response rating [8, 17]: 0
Cocklebur plant response rating [8, 18]: 0
Plant response rating, Cocklebur [8, 19]: 0
Cocklebur plant response rating [8, 20]: 2
Sugarbeets plant response rating [9, 13]: 0
Sugarbeets plant response rating [9, 14]: 0
Sugarbeets plant response rating (0 to 10 scale) [9, 15]: 0
Sugarbeets plant response rating [9, 16]: 0
Sugarbeets plant response rating [9, 17]: 0
Sugarbeets plant response rating [9, 18]: 0
Plant response rating, Sugarbeets [9, 19]: 0
Sugarbeets plant response rating [9, 20]: 0
B. signalgrass plant response rating [10, 13]: 0
B. signalgrass plant response rating [10, 14]: 0
B. signalgrass plant response rating (0 to 10 scale) [10, 15]: 2
B. signalgrass plant response rating [10, 16]: 3
B. signalgrass plant response rating [10, 17]: 7
B. signalgrass plant response rating [10, 18]: 0
Plant response rating, B. signalgrass [10, 19]: 0
B. signalgrass plant response rating ([10]; Rate 500 g/ha, Postemergence, scale 0 to 10, 0 no effect, 10 complete control): 4
Redroot pigweed plant response rating [11, 13]: 0
Redroot pigweed plant response rating [11, 14]: 0
Redroot pigweed plant response rating (0 to 10 scale) [11, 15]: 0
Redroot pigweed plant response rating [11, 16]: 0
Redroot pigweed plant response rating [11, 17]: 7
Redroot pigweed plant response rating [11, 18]: 0
Plant response rating, Redroot pigweed [11, 19]: 0
Redroot pigweed plant response rating [11, 20]: 0
Soybean plant response rating [12, 13]: 4
Soybean plant response rating [12, 14]: 0
Soybean plant response rating (0 to 10 scale) [12, 15]: 0
Soybean plant response rating [12, 16]: 0
Soybean plant response rating [12, 17]: 0
Soybean plant response rating [12, 18]: 3
Plant response rating, Soybean [12, 19]: 4
Soybean plant response rating [12, 20]: 4
